Bounds are passed on as bounds.

One assay deals with T1, human F508del CFTR (Homo sapiens, UniProt P13569, DEL508-508).
T1 construct: expressed in transfected cells
T1 sequence (P13569 with tags, fused parts or gaps DEL508-508): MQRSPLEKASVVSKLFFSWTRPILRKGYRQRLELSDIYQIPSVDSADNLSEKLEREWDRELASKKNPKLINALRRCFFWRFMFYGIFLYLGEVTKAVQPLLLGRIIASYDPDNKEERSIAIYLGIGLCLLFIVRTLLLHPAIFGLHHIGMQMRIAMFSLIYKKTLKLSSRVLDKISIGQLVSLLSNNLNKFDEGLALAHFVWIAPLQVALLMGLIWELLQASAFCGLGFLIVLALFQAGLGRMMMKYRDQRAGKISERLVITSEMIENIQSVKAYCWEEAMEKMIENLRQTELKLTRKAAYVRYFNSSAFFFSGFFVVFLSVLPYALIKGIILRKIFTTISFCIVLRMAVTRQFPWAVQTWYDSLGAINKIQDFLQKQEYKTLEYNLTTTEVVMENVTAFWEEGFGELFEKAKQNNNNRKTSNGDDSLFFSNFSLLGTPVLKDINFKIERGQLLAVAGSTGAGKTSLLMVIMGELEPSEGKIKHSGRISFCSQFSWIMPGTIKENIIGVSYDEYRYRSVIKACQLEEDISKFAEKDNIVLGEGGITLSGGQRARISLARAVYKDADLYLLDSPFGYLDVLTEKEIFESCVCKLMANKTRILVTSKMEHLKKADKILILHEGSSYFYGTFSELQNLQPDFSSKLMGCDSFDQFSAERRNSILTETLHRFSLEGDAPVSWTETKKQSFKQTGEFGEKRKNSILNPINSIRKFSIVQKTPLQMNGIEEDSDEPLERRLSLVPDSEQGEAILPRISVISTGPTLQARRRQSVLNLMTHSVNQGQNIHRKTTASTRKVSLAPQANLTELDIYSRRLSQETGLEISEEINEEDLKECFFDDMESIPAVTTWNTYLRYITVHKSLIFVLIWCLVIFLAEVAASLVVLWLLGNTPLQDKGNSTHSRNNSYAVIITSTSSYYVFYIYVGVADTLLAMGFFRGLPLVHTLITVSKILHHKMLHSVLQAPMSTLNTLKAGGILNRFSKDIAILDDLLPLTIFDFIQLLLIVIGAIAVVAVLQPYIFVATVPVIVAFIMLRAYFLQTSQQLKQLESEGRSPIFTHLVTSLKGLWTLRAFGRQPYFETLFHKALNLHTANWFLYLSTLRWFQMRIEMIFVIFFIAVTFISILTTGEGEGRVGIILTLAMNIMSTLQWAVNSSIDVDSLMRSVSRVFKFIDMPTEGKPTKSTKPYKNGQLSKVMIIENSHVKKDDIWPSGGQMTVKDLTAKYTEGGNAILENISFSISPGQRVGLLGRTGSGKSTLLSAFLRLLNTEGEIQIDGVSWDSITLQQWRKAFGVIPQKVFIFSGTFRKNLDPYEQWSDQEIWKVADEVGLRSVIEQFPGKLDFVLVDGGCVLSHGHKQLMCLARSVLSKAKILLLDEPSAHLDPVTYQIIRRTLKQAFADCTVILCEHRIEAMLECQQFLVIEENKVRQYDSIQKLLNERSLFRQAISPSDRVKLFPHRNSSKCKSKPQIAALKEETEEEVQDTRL
The experiment in a line: CFTR-YFP Assay, CFTR Corrector Protocol (YFP flux assay).
Details: not given
It is filed as cell-based.
In turn, `CCc1ccc(S(=O)(=O)N2CCC(N(c3ccc(F)cc3)S(=O)(=O)c3ccccc3Cl)CC2)cc1` [Example 241] came in with an EC50 of less than 10 µM.

`CCc1ccc(S(=O)(=O)N2CCC(N(c3ncccn3)S(=O)(=O)c3ccccc3Cl)CC2)cc1` [Example 242] came in with an EC50 of less than 10 µM.

`CCc1ccc(S(=O)(=O)N2CCC(N(c3ccc(C(F)(F)F)cn3)S(=O)(=O)c3ccccc3Cl)CC2)cc1` [Example 243] returned a 50% effective concentration (EC50) of 10 to 20 µM.

Molecule `CCc1ccc(S(=O)(=O)N2CCC(N(c3cc(OC)ccn3)S(=O)(=O)c3ccccc3Cl)CC2)cc1` [Example 244] had an EC50 of 10 to 20 µM.

For the molecule `CCc1ccc(S(=O)(=O)N2CCC(N(c3cnc(OC)cn3)S(=O)(=O)c3ccccc3Cl)CC2)cc1` [Example 245], the 50% effective concentration (EC50) was less than 10 µM.

`CCc1ccc(S(=O)(=O)N2CCC(N(c3cccc(OC)c3)S(=O)(=O)c3ccccc3Cl)CC2)cc1` [Example 246]: the EC50 lay in the range of 10 to 20 µM.

Turning to `CCc1ccc(S(=O)(=O)N2CCC(N(c3ncccc3OC)S(=O)(=O)c3ccccc3Cl)CC2)cc1` [Example 247], the EC50 is less than 10 µM.

In the case of `CCc1ccc(S(=O)(=O)N2CCC(N(c3cnccn3)S(=O)(=O)c3ccccc3Cl)CC2)cc1` [Example 248], the EC50 was less than 10 µM.

The molecule `CCc1ccc(S(=O)(=O)N2CCC(N(c3ccncn3)S(=O)(=O)c3ccccc3Cl)CC2)cc1` [Example 249] yielded an EC50 of less than 10 µM.

The same assay, now with this note: normalized to the positive control, read-out: EMAX (% Efficacy, EMAX normalized to the positive control).
Take `CCc1ccc(S(=O)(=O)N2CCC(N(c3ccc(F)cc3)S(=O)(=O)c3ccccc3Cl)CC2)cc1` [Example 241]: the Emax is 10 to 30%.

In the case of `CCc1ccc(S(=O)(=O)N2CCC(N(c3ncccn3)S(=O)(=O)c3ccccc3Cl)CC2)cc1` [Example 242], the maximal response (Emax) was 10 to 30%.

With `CCc1ccc(S(=O)(=O)N2CCC(N(c3ccc(C(F)(F)F)cn3)S(=O)(=O)c3ccccc3Cl)CC2)cc1` [Example 243], the Emax was 10 to 30%.

Regarding `CCc1ccc(S(=O)(=O)N2CCC(N(c3cc(OC)ccn3)S(=O)(=O)c3ccccc3Cl)CC2)cc1` [Example 244], the Emax is 30 to 80%.

Consider `CCc1ccc(S(=O)(=O)N2CCC(N(c3cnc(OC)cn3)S(=O)(=O)c3ccccc3Cl)CC2)cc1` [Example 245], for which the Emax is 30 to 80%.

With `CCc1ccc(S(=O)(=O)N2CCC(N(c3cccc(OC)c3)S(=O)(=O)c3ccccc3Cl)CC2)cc1` [Example 246], the Emax was 30 to 80%.

As for `CCc1ccc(S(=O)(=O)N2CCC(N(c3ncccc3OC)S(=O)(=O)c3ccccc3Cl)CC2)cc1` [Example 247], the Emax was in the range of 30 to 80%.

With `CCc1ccc(S(=O)(=O)N2CCC(N(c3cnccn3)S(=O)(=O)c3ccccc3Cl)CC2)cc1` [Example 248], the Emax is 30 to 80%.

Consider `CCc1ccc(S(=O)(=O)N2CCC(N(c3ccncn3)S(=O)(=O)c3ccccc3Cl)CC2)cc1` [Example 249], for which the Emax was 30 to 80%.

By EC50 is commonly meant the concentration giving half of the maximal effect. The Emax is the maximal effect, on the per cent scale that the assay sets.

The values are drawn from patent US9944603B2, “Compounds and methods for the treatment of cystic fibrosis” (Flatley Discovery Lab, LLC, priority 2013, dated 2018).
